The values below are quoted from earlier work in patent publication US20240093147A1, “GLIA-LIKE CELLS DIFFERENATIATED FROM SOMATIC CELLS, PREPARATION METHOD THEREFOR, COCKTAIL COMPOSITION FOR PREPARING SAME, CELL THERAPEUTIC AGENT FOR PREVENTING OR TREATING NEUROLOGICAL DISORDERS, COMPRISING SAME, AND METHOD FOR PREVENTING AND TREATING NEUROLOGICAL DISORDERS BY ADMINISTERING SAME” (CELLAPEUTICS BIO, priority 2019, published 2024).

The conditions of data set [1]: forskolin, cAMP agonist.
In another data set the test system is HDAC. As to conditions: valproic acid, HDAC inhibitor.

Turning to `C=C[C@@]1(C)CC(=O)[C@]2(O)[C@@]3(C)[C@@H](O)CCC(C)(C)[C@@H]3[C@H](O)[C@H](OC(C)=O)[C@@]2(C)O1` [Forskolin, forskolin], the IC50 in data set [1] was 0.5 µM.

As for `CCCC(CCC)C(=O)O` [Valproic Acid, valproic acid], the IC50 in the data set with HDAC is 2000 µM.

A word on the IC50: it is the point on the concentration scale where inhibition reaches its midpoint.
